Assay results as given in the supplement of paper PMC13380429.

Tests used:
Details in all cases: 72 h
Calu-3 [1] = test: drug sensitivity score (DSS) for viability; higher = more toxic; extreme values may be limits of the assay
U2OS [2] = test: as above
Caco-2 [3] = test: as above
HepG2 [4] = test: as above
Vero E6 [5] = test: as above
Calu-3 [6] = test: cell viability relative to DMSO; higher = less toxic
U2OS [7] = test: as above
Caco-2 [8] = test: as above
HepG2 [9] = test: as above
Vero E6 [10] = test: as above
Calu-3 [11] = test: relative viability EC50 (midpoint between 100% and the lowest measured viability); higher = less toxic
U2OS [12] = test: as above
Caco-2 [13] = test: as above
HepG2 [14] = test: as above
Vero E6 [15] = test: as above

| SMILES | drug sensitivity score (Calu-3 [1]) | drug sensitivity score (U2OS [2]) | drug sensitivity score (Caco-2 [3]) | drug sensitivity score (HepG2 [4]) | drug sensitivity score (Vero E6 [5]) | cell viability (Calu-3 [6]; 1 nM) [%] | cell viability (Calu-3 [6]; 10 nM) [%] | cell viability (Calu-3 [6]; 100 nM) [%] | cell viability (Calu-3 [6]; 1000 nM) [%] | cell viability (Calu-3 [6]; 10000 nM) [%] | cell viability (U2OS [7]; 1 nM) [%] | cell viability (U2OS [7]; 10 nM) [%] | cell viability (U2OS [7]; 100 nM) [%] | cell viability (U2OS [7]; 1000 nM) [%] | cell viability (U2OS [7]; 10000 nM) [%] | cell viability (Caco-2 [8]; 1 nM) [%] | cell viability (Caco-2 [8]; 10 nM) [%] | cell viability (Caco-2 [8]; 100 nM) [%] | cell viability (Caco-2 [8]; 1000 nM) [%] | cell viability (Caco-2 [8]; 10000 nM) [%] | cell viability (HepG2 [9]; 1 nM) [%] | cell viability (HepG2 [9]; 10 nM) [%] | cell viability (HepG2 [9]; 100 nM) [%] | cell viability (HepG2 [9]; 1000 nM) [%] | cell viability (HepG2 [9]; 10000 nM) [%] | cell viability (Vero E6 [10]; 1 nM) [%] | cell viability (Vero E6 [10]; 10 nM) [%] | cell viability (Vero E6 [10]; 100 nM) [%] | cell viability (Vero E6 [10]; 1000 nM) [%] | cell viability (Vero E6 [10]; 10000 nM) [%] | relative viability EC50 (Calu-3 [11]) [µM] | relative viability EC50 (U2OS [12]) [µM] | relative viability EC50 (Caco-2 [13]) [µM] | relative viability EC50 (HepG2 [14]) [µM] | relative viability EC50 (Vero E6 [15]) [µM] |
| --- | --- | --- | --- | --- | --- | --- | --- | --- | --- | --- | --- | --- | --- | --- | --- | --- | --- | --- | --- | --- | --- | --- | --- | --- | --- | --- | --- | --- | --- | --- | --- | --- | --- | --- | --- |
| CS(=O)(=O)OCOS(C)(=O)=O [MDMS] | 0 | 0 | 0 | 0 | 0 | 102 | 103 | 95.9 | 100 | 97.7 | 100 | 102 | 99.6 | 106 | 104 | 104 | 105 | 98.1 | 99.7 | 101 | 109 | 97.1 | 112 | 112 | 107 | 99.8 | 98.4 | 102 | 98.7 | 101 | > 10 | > 10 | > 10 | > 10 | > 10 |
| NS(=O)(=O)Cc1noc2ccccc12 [zonisamide] | 0 | 0 | 0 | 0 | 0 | 95.1 | 97.9 | 100 | 115 | 88.1 | 94.1 | 93.9 | 92.4 | 98.4 | 102 | 84.9 | 97.9 | 96.1 | 96.3 | 106 | 110 | 102 | 98.2 | 94.5 | 102 | 101 | 93.3 | 98.5 | 93.8 | 106 | > 10 | > 10 | > 10 | > 10 | > 10 |
| OCCc1ccc(OCCn2ccnc2)cc1 [MR-948] | 0 | 0 | 0 | 0 | 0 | 96.4 | 99 | 97.6 | 105 | 104 | 99.4 | 99.9 | 98.6 | 96 | 96.8 | 94.9 | 93.1 | 86.3 | 108 | 99.8 | 89.2 | 104 | 96.7 | 106 | 106 | 90 | 98.6 | 94.8 | 95 | 107 | > 10 | > 10 | > 10 | > 10 | > 10 |
| COc1ccc(-c2nc(N3CCOCC3)c3sc(CN(C)c4ncc(C(=O)NO)cn4)cc3n2)cn1 [CUDC-907] | 32 | 38.7 | 33 | 37.9 | 34 | 85.2 | 65.4 | 14.1 | 5.1 | 3.7 | 90.9 | 34.4 | 0.6 | 0.3 | 0.4 | 81.5 | 73.2 | 3.5 | 0.6 | 1 | 90.2 | 39.6 | 0.6 | -0.1 | -0.1 | 103 | 78.2 | 0 | -0.3 | -0.4 | 0.0152 | 0.006 | 0.0177 | 0.0069 | 0.0166 |
| Clc1cccc(C(c2ccc3[nH]cnc3c2)n2ccnc2)c1 (stereo not given) [liarozole] | 0 | 0 | 0 | 0 | 0 | 99 | 96.1 | 93.8 | 103 | 101 | 97.8 | 95 | 95.5 | 93.9 | 96.3 | 97.2 | 87.8 | 98.7 | 93.9 | 85.4 | 99.6 | 104 | 99.3 | 111 | 89.3 | 94.2 | 90.5 | 94.8 | 94.8 | 95 | > 10 | > 10 | > 10 | > 10 | > 10 |
| O=C1CCC[C@@H]2[C@H]3CCC[N+]4([O-])CCC[C@@H](CN12)[C@@H]34 (stereo not given in full) [oxymatrine] | 0 | 0 | 0 | 0 | 0 | 89 | 93.1 | 101 | 91.7 | 86.9 | 97.8 | 106 | 98 | 102 | 96.7 | 97.1 | 103 | 96.6 | 95.5 | 88.3 | 104 | 97.6 | 98.5 | 96.3 | 108 | 102 | 97.5 | 101 | 98.4 | 104 | > 10 | > 10 | > 10 | > 10 | > 10 |
| Cc1cccc(C)c1NC(=O)C1CCCCN1C (stereo not given) [mepivacaine] | 0 | 0 | 0 | 0 | 0 | 89.7 | 97.8 | 93.9 | 99.6 | 103 | 98 | 95.8 | 99.4 | 97.4 | 104 | 92.1 | 81.4 | 102 | 90.6 | 108 | 96.8 | 107 | 105 | 115 | 104 | 96.3 | 91.4 | 99.2 | 103 | 107 | > 10 | > 10 | > 10 | > 10 | > 10 |
| NC(=O)CCCCn1ccc(/N=C(\N)NCC(F)(F)F)n1 | 0 | 0 | 0 | 0 | 0 | 110 | 96.5 | 107 | 99.4 | 102 | 98.8 | 104 | 104 | 99.9 | 99.5 | 98.8 | 97.8 | 104 | 92.6 | 97.6 | 103 | 97.7 | 98.1 | 105 | 105 | 106 | 103 | 104 | 102 | 99.7 | > 10 | > 10 | > 10 | > 10 | > 10 |
